We go through 11 compounds from US7314861B2, “Melanin-concentrating hormone analogs” (priority 2001, dated 2008).

Where a SMILES comes first, the peptide text is derived from it. Bridges are numbered along the chain shown (N, C = ends). Where only a bound is given, the exact number is not on record here.

One experiment addresses human MCH-1R (Homo sapiens, UniProt Q99705). The experiment in a line: Aequorin bioluminescence functional assay, MCH-1R. The note with it: for MCH-1R Activation %: % Activation at 10 μM, aequorin functional assay.
A further experiment deals with human MCH-R2 (Homo sapiens, UniProt Q969V1). The experiment in a line: Aequorin bioluminescence functional assay, MCH-2R. The note with it: for EC50: MCH-2R EC50 (nM); for EC50 / MCH-2R Activation %: aequorin functional assay; for MCH-2R Activation %: % Activation at 10 μM; for selective activity at MCH-2R over MCH-1R: greater binding and/or activation at MCH-2R than at MCH-1R.
Chain of human MCH-R2 (Q969V1 whole entry): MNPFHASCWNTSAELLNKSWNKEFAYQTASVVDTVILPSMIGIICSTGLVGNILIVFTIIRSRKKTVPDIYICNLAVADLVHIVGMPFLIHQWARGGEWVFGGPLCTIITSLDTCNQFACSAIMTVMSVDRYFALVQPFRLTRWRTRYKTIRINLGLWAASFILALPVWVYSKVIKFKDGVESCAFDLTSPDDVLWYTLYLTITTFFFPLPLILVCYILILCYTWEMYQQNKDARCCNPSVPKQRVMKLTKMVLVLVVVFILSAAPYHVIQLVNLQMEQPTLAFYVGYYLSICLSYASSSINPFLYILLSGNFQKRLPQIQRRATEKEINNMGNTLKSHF

Chain of human MCH-1R (Q99705 whole entry): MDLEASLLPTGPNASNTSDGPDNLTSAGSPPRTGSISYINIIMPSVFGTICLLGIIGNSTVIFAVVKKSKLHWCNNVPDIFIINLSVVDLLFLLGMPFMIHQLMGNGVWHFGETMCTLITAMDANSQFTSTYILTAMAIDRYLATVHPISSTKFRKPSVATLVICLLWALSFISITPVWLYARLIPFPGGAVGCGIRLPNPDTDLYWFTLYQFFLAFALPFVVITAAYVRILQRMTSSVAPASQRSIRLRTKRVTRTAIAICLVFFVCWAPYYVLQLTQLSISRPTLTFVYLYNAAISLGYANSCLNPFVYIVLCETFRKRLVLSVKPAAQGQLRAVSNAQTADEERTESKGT
Description for human MCH-1R: The aequorin bioluminescence assay can be used to measure the activity of G protein-coupled receptors that couple through the Gα protein subunit family consisting of Gq and G11. Such coupling leads to phospholipase C activation, intracellular calcium mobilization and protein kinase C activation.
Following approximately 40 hours of expression the apo-aequorin in the cells was charged for 4 hours with coelenterazine (10 μM) under reducing conditions (300 μM reduced glutathione) in ECB buffer (140 mM NaCl, 20 mM KCl, 20 mM HEPES-NaOH [pH=7.4], 5 mM glucose, 1 mM MgCl2, 1 mM CaCl2, 0.1 mg/ml bovine serum albumin).
The cells were harvested, washed once in ECB medium and resuspended to 500,000 cells/ml. 100 μl of cell suspension (corresponding to 5×10^4 cells) was then injected into the test plate containing MCH or MCH analogs, and the integrated light emission was recorded over 30 seconds, in 0.5 second units. 20 μL of lysis buffer (0.1% final Triton X-100 concentration) was then injected and the integrated light emission recorded over 10 seconds, in 0.5 second units. The “fractional response” values for each well were calculated by taking the ratio of the integrated response to the initial challenge to the total integrated luminescence including the Triton X-100 lysis response.

For the compound `CSCC[C@@H]1NC(=O)[C@@H](NC(=O)[C@H](CCCNC(=N)N)NC(C)=O)CSSC[C@@H](C(N)=O)NC(=O)[C@@H]2CCCN2C(=O)[C@H](CCCNC(=N)N)NC(=O)[C@H](Cc2ccc(O)cc2)NC(=O)[C@H](C(C)C)NC(=O)[C@H](CCCNC(=N)N)NC(=O)[C@@H](C)NC(=O)[C@H](CC(C)C)NC1=O` [compound 13], at human MCH-1R (Table 1), the “MCH-1R Activation %” value was determined as 40%. Moreover, the EC50 on human MCH-R2 (Table 1, 293-AEQ17 cells) turned out to be 16 nM. For the same compound, the “MCH-2R Activation %” value at human MCH-R2 (Table 1) was found to be 103%. The “selective activity at MCH-2R over MCH-1R” value at human MCH-R2 is reported as “selectively active”.
In the case of `CSCC[C@@H]1NC(=O)[C@@H](NC(=O)[C@H](CCCNC(=N)N)NC(C)=O)CSSC[C@@H](C(N)=O)NC(=O)[C@@H]2CCCN2C(=O)[C@H](CCCNC(=N)N)NC(=O)[C@H](Cc2ccc(O)cc2)NC(=O)[C@H](C(C)C)NC(=O)[C@H](CCCNC(=N)N)NC(=O)[C@@H](CC2CCCCC2)NC(=O)[C@H](CC(C)C)NC1=O` [compound 16], the EC50 at human MCH-1R is > 10000 nM. Moreover, the “MCH-1R Activation %” value at human MCH-1R (Table 1) is recorded as 0.1%. The “selective activity at MCH-2R over MCH-1R” value at human MCH-R2 was “selectively active”.
In the case of `CSCC[C@@H]1NC(=O)[C@@H](NC(=O)[C@H](CCCNC(=N)N)NC(C)=O)CSSC[C@@H](C(N)=O)NC(=O)[C@@H]2CCCN2C(=O)[C@H](CCCNC(=N)N)NC(=O)[C@H](Cc2ccc(O)cc2)NC(=O)[C@H](C(C)C)NC(=O)[C@H](CCCNC(=N)N)NC(=O)[C@@H](Cc2ccccc2)NC(=O)[C@H](CC(C)C)NC1=O` [compound 17], the EC50 on human MCH-1R is > 10000 nM; at human MCH-R2 (Table 1, 293-AEQ17 cells), 25 nM. For the same compound, at human MCH-1R (Table 1), the “MCH-1R Activation %” value is reported as 5%. Besides, the “MCH-2R Activation %” value on human MCH-R2 (Table 1) is 102%. For the same compound, on human MCH-R2, the “selective activity at MCH-2R over MCH-1R” value was “selectively active”.
Regarding `CSCC[C@@H]1NC(=O)[C@@H](NC(=O)[C@H](CCCNC(=N)N)NC(C)=O)CSSC[C@@H](C(N)=O)NC(=O)[C@@H]2CCCN2C(=O)[C@H](CCCNC(=N)N)NC(=O)[C@H](Cc2ccc(O)cc2)NC(=O)[C@H](C(C)C)NC(=O)[C@H](CCCCNC(=N)N)NC(=O)CNC(=O)[C@H](CC(C)C)NC1=O` [compound 24], the “MCH-1R Activation %” value on human MCH-1R (Table 1) was 72%. Further, the EC50 on human MCH-R2 (Table 1, 293-AEQ17 cells) was > 10000 nM. Besides, the “MCH-2R Activation %” value at human MCH-R2 (Table 1) turned out to be 43%.
For `CSCC[C@@H]1NC(=O)[C@@H](NC(=O)[C@H](CCCNC(=N)N)NC(C)=O)CSSC[C@@H](C(N)=O)NC(=O)[C@@H]2CCCN2C(=O)[C@H](CCCNC(=N)N)NC(=O)[C@H](Cc2ccc(O)cc2)NC(=O)[C@H](C(C)C)NC(=O)[C@H](CCCNC(=N)N[N+](=O)[O-])NC(=O)CNC(=O)[C@H](CC(C)C)NC1=O` [compound 25], the concentration for a half-maximal effect (EC50) at human MCH-1R is > 1000 nM; on human MCH-R2 (Table 1, 293-AEQ17 cells) it was > 10000 nM. For the same compound, the “MCH-2R Activation %” value at human MCH-R2 (Table 1) worked out at 39%. Also, the “selective activity at MCH-2R over MCH-1R” value at human MCH-R2 is on record as “selectively active”.
For `CC(=O)N[C@@H](CCCNC(=N)N)C(=O)N[C@H]1CSSC[C@@H](C(N)=O)NC(=O)[C@@H]2CCCN2C(=O)[C@H](CCCNC(=N)N)NC(=O)[C@H](Cc2ccc(O)cc2)NC(=O)[C@H](C(C)C)NC(=O)[C@H](CCCCNC(=N)N)NC(=O)[C@@H](C)NC(=O)[C@H](CC(C)C)NC(=O)[C@H](C)NC1=O` [compound 38], the EC50 on human MCH-1R is > 10000 nM. Further, at human MCH-1R (Table 1), the “MCH-1R Activation %” value came out at 20%. The “MCH-2R Activation %” value at human MCH-R2 (Table 1) came out at 49%.
For the compound `CSCC[C@@H]1NC(=O)[C@@H](NC(=O)[C@H](CCCNC(=N)N)NC(=O)[C@H](CC(C)C)NC(=O)[C@H](CCSC)NC(=O)[C@H](CC(=O)O)NC(=O)[C@H](Cc2ccccc2)NC(=O)[C@H](C)N)CSSC[C@@H](C(=O)N[C@@H](Cc2c[nH]c3ccccc23)C(=O)N[C@@H](CCC(N)=O)C(=O)N[C@H](C(=O)O)C(C)C)NC(=O)[C@@H]2CCCN2C(=O)[C@H](CCCNC(=N)N)NC(=O)[C@H](Cc2ccc(O)cc2)NC(=O)[C@H](C(C)C)NC(=O)[C@H](CCCNC(=N)N)NC(=O)CNC(=O)[C@H](CC(C)C)NC1=O` [compound 41] (H-AFDMLRCMLGRVYRPCWQV-OH; disulfide 7-16; N-terminus and C-terminus assumed), on human MCH-1R (Table 3), the “MCH-1R Activation %” value turned out to be 96%. On human MCH-R2 (Table 3), the “MCH-2R Activation %” value turned out to be 96%.
As for `CSCC[C@H](NC(=O)[C@H](CC(=O)O)NC(=O)[C@H](C)NC(=O)[C@@H](N)CC(=O)O)C(=O)N[C@@H](CC(C)C)C(=O)N[C@@H](CCCNC(=N)N)C(=O)N[C@H]1CSSC[C@@H](C(=O)N[C@@H](Cc2c[nH]c3ccccc23)C(=O)N[C@@H](CCC(N)=O)C(=O)N[C@H](C(=O)O)C(C)C)NC(=O)[C@@H]2CCCN2C(=O)[C@H](CCCNC(=N)N)NC(=O)[C@H](Cc2ccc(O)cc2)NC(=O)[C@H](C(C)C)NC(=O)[C@H](CCCNC(=N)N)NC(=O)CNC(=O)[C@H](CC(C)C)NC(=O)[C@H](CCSC)NC1=O` [compound 42] (H-DADMLRCMLGRVYRPCWQV-OH; disulfide 7-16; N-terminus and C-terminus assumed), the “MCH-1R Activation %” value at human MCH-1R (Table 3) amounted to 97%. Further, the “MCH-2R Activation %” value on human MCH-R2 (Table 3) was 102%.
The like results for `CSCC[C@@H]1NC(=O)[C@@H](NC(=O)[C@H](C)NC(=O)[C@H](CC(C)C)NC(=O)[C@H](CCSC)NC(=O)[C@H](CC(=O)O)NC(=O)[C@H](Cc2ccccc2)NC(=O)[C@@H](N)CC(=O)O)CSSC[C@@H](C(=O)N[C@@H](Cc2c[nH]c3ccccc23)C(=O)N[C@@H](CCC(N)=O)C(=O)N[C@H](C(=O)O)C(C)C)NC(=O)[C@@H]2CCCN2C(=O)[C@H](CCCNC(=N)N)NC(=O)[C@H](Cc2ccc(O)cc2)NC(=O)[C@H](C(C)C)NC(=O)[C@H](CCCNC(=N)N)NC(=O)CNC(=O)[C@H](CC(C)C)NC1=O` [compound 46] (H-DFDMLACMLGRVYRPCWQV-OH; disulfide 7-16; N-terminus and C-terminus assumed) were, in that order, 81% and 76%.
For `CSCC[C@@H]1NC(=O)[C@@H](NC(=O)[C@H](CCCNC(=N)N)NC(=O)[C@H](CC(C)C)NC(=O)[C@H](CCSC)NC(=O)[C@H](CC(=O)O)NC(=O)[C@H](Cc2ccccc2)NC(=O)[C@@H](N)CC(=O)O)CSSC[C@@H](C(=O)N[C@@H](Cc2c[nH]c3ccccc23)C(=O)N[C@@H](CCC(N)=O)C(=O)N[C@H](C(=O)O)C(C)C)NC(=O)[C@@H]2CCCN2C(=O)[C@H](CCCNC(=N)N)NC(=O)[C@H](Cc2ccc(O)cc2)NC(=O)[C@H](C(C)C)NC(=O)[C@H](C)NC(=O)CNC(=O)[C@H](CC(C)C)NC1=O` [compound 49] (H-DFDMLRCMLGAVYRPCWQV-OH; disulfide 7-16; N-terminus and C-terminus assumed), on human MCH-1R (Table 3), the “MCH-1R Activation %” value is 24%. The EC50 on human MCH-R2 (Table 3) is > 1000 nM.
As to `CSCC[C@@H]1NC(=O)[C@@H](NC(=O)[C@H](CCCNC(=N)N)NC(=O)[C@H](CC(C)C)NC(=O)[C@H](CCSC)NC(=O)[C@H](CC(=O)O)NC(=O)[C@H](Cc2ccccc2)NC(=O)[C@@H](N)CC(=O)O)CSSC[C@@H](C(=O)N[C@@H](Cc2c[nH]c3ccccc23)C(=O)N[C@@H](CCC(N)=O)C(=O)N[C@H](C(=O)O)C(C)C)NC(=O)[C@@H]2CCCN2C(=O)[C@H](CCCNC(=N)N)NC(=O)[C@H](C)NC(=O)[C@H](C(C)C)NC(=O)[C@H](CCCNC(=N)N)NC(=O)CNC(=O)[C@H](CC(C)C)NC1=O` [compound 51] (H-DFDMLRCMLGRVARPCWQV-OH; disulfide 7-16; N-terminus and C-terminus assumed), the “MCH-1R Activation %” value on human MCH-1R (Table 3) is recorded as 20%. On human MCH-R2 (Table 3), the EC50 is > 1000 nM.
